What all share (conditions): in vivo
A short description of series [1]: Bioavailability in rat at 100 mg/kg, ip. The class given is ADME, organism-based.
The nature of series [2]: Oral bioavailability in rat at 100 mg/kg. The format is ADME, organism-based.
Series [3] in a line: Bioavailability in beagle dog. The format is ADME, organism-based, Canis lupus familiaris.

Turning to `C[C@H]1COC2=C1C(=O)C(=O)c1c2ccc2c1CCCC2(C)C` [CRYPTOTANSHINONE], the bioavailability in series [1] was 10.6%; in series [2] it was 2.1%.

In series [3], `O=C(/C=C/c1ccc(O)c(O)c1/C=C/c1ccc(O)c(O)c1)O[C@H](Cc1ccc(O)c(O)c1)C(=O)O` [SALVIANOLIC ACID A] had a bioavailability of 1.47%.
